Source: patent EP1057825A1, “ISOFLAVANE DERIVATIVES AND IMMUNOPOTENTIATING COMPOSITIONS CONTAINING THE SAME” (SHIONOGI & CO., LTD., priority 1998, dated 1999)

What was measured:
[1] = test system: mouse bone marrow cells; assay: Metabolism promoting action on mouse bone marrow cells (mitochondrial metabolism activity, MTT reduction method); assay type: cell-based, BALB/c mouse; conditions: Mus musculus, Bone marrow cell, 120 h, 5 days, magnitude of metabolism, no test compound = one; for activity at 0.39 µg/mL: Test compound concentration 0.39 µg/ml; for activity at 0.78 µg/mL: Test compound concentration 0.78 µg/ml; for activity at 1.56 µg/mL: Test compound concentration 1.56 µg/ml; for activity at 3.13 µg/mL: Test compound concentration 3.13 µg/ml; for activity at 6.25 µg/mL: Test compound concentration 6.25 µg/ml; for activity at 12.5 µg/mL: Test compound concentration 12.5 µg/ml
Text: The presence of an immunoactivating action can be determined if the magnitude of metabolism exceeds one, where the cellular metabolism of cells not having test compounds added thereto is defined as one.

[2] = test system: mouse spleen cells; assay: Action on the blastogenesis of mouse spleen cells (ConA-stimulated, MTT reduction method); assay type: cell-based, BALB/c mouse; conditions: Mus musculus, 72 h, ConA 1 µg/ml, 3 days, rate against no test compound = one; for activity at 0.1 µg/mL: concentration of additions in medium 0.1 μg/ml; for activity at 0.2 µg/mL: concentration of additions in medium 0.2 μg/ml; for activity at 0.39 µg/mL: concentration of additions in medium 0.39 μg/ml; for activity at 0.78 µg/mL: concentration of additions in medium 0.78 μg/ml; for activity at 1.56 µg/mL: concentration of additions in medium 1.56 μg/ml; for activity at 3.13 µg/mL: concentration of additions in medium 3.13 μg/ml; for activity at 6.25 µg/mL: concentration of additions in medium 6.25 μg/ml
Procedure: Serial two-fold dilutions (100 µl/well) with 10% FBS of test compounds which are dissolved in a dimethyl sulfoxide (DMSO) solution are obtained on a 96-well microplate, and used as test samples.
The spleen of a BALB/c mouse is aseptically isolated, and gently ground on a wire mesh with dropwise addition of sterilzed saline. The filtrate is passed through a nylon mesh (Becton Dickinson; pore size: 70 µm), thereby preparing a unicellular suspension.
(§1) After being washed twice with sterilized saline, the spleen cells are suspended in RPMI1460 containing 10% FCS and containing 1 µg/ml of concanavalin A (abbreviated as ConA: Sigma, U.S.) as well as an antibiotic (Sigma: Antibiotic Antimycotic), and dispensed into a 96-well microplate, in which 100 µl each of diluted test samples are previously dispensed, in amounts of 3 × 10^5 cells/100 µl/well.
Thereafter, culturing is carried out under 5% carbon dioxide gas at 37°C for 3 days, and then the blastogenesis of lymphocytes is measured by an MTT reduction method [Mosmann T, Journal of Immunological Method, vol. 65, p. 55, 1983]. The blastogenesis rate can be quantitated as a rate against the blastogenesis of those not having test compounds added thereto, which is defined as one. The presence of an immunoactivating action can be determined if the blastogenesis rate exceeds one.
Serial two-fold dilutions (100 µl/well) with RPMI1640 (Nikken Biomedical Laboratory) containing 10% FBS (bovine fetal serum: Dainippon Pharmaceutical Co., Ltd.) of test compounds which were dissoloved in a dimethylsulfoxide (DMSO) solution were obtained on a 96-well microplate, and used as test samples.
The spleen of a BALB/c mouse (a 6 week-old female) was aseptically isolated, and gently ground on a wire mesh with dropwise addition of sterilzed saline. The filtrate was passed through a nylon mesh (Becton Dickinson; pore size: 70 µm), thereby preparing a unicellular suspension.
as §1, with “cells were” for “cells are”, “samples had” for “samples are”, “previously been” for “previously”, “of 3×10^5” for “of 3 × 10^5”
Thereafter, culturing was carried out under 5% carbon dioxide gas at 37°C for 3 days, and then the blastogenesis of lymphocytes was measured by an MTT reduction method [Mosmann T, Journal of Immunological Method, vol. 65, p. 55, 1983]. The results are shown in [Table 4].

Structure (SMILES)	activity at 0.39 µg/mL [1]	activity at 0.78 µg/mL [1]	activity at 1.56 µg/mL [1]	activity at 3.13 µg/mL [1]	activity at 6.25 µg/mL [1]	activity at 12.5 µg/mL [1]	activity at 0.1 µg/mL [2]	activity at 0.2 µg/mL [2]	activity at 0.39 µg/mL [2]	activity at 0.78 µg/mL [2]	activity at 1.56 µg/mL [2]	activity at 3.13 µg/mL [2]	activity at 6.25 µg/mL [2]
CCCCCCCCCOc1cc2c(c(OC)c1CCC(C)C)CC(c1ccc(O)c(CCC(C)C)c1OCCCCCCCCC)CO2 (centres unmarked) [A-18]	103%	102%	109%	115%	119%	114%							
CCCCCCCCCOc1ccc(C2COc3cc(O)c(CCC(C)C)c(OC)c3C2)c(OCCCCCCCCC)c1CCC(C)C (centres unmarked) [A-17]	116%	117%	126%	164%	177%	156%							
CCCCCCOc1cc2c(c(OC)c1CCC(C)C)CC(c1ccc(O)c(CCC(C)C)c1OCCCCCC)CO2 (centres unmarked) [A-14]	134%	149%	166%	184%	199%	209%							
COc1ccc(C2COc3cc(O)c(CC=C(C)C)c(OC)c3C2)c(O)c1CC=C(C)C (centres unmarked) [A-7, 3-(2-hydroxy-4-methoxy-3-(3-methyl-2-butenyl)-phenyl)-3,4-dihydro-5-methoxy-7-hydroxy-6-(3-methyl-2-butenyl)-2H-1-benzopyran]	103%	112%	139%	152%	51%	51%	113%	107%	132%	161%	195%	293%	408%
COc1cc(O)c2c(c1)OCC(c1ccc(OCc3ccccc3)cc1OCc1ccccc1)C2 (centres unmarked) [B-7]	99%	100%	125%	141%	132%	67%							
COc1c2c(cc(OC(C)C)c1CCC(C)C)OCC(c1ccc(O)c(CCC(C)C)c1OC(C)C)C2 (centres unmarked) [A-21]			131%	122%	89%	44%							
COc1cc(OC)c2c(c1)OCC(c1ccc(O)c(CC=C(C)C)c1O)C2 (centres unmarked) [B-4]	110%	115%	125%	176%	258%	44%							
COc1c(CCC(C)C)c(O)cc2c1CC(c1ccc(O)c(CCC(C)C)c1OC(C)C)CO2 (centres unmarked) [A-22]			186%	176%	40%	50%							
COc1cc2c(c(OC)c1CCC(C)C)CC(c1ccc(O)cc1O)CO2 (centres unmarked) [B-11]	102%	129%	125%	139%	88%	32%							
COc1cc(OC)c2c(c1)OCC(c1ccc(OCC=C(C)C)cc1OCC=C(C)C)C2 (centres unmarked) [B-3]	114%	111%	110%	162%	183%	204%							
COc1c(CCC(C)C)c(O)cc2c1CC(c1ccc(OC(C)C)c(CCC(C)C)c1OC(C)C)CO2 (centres unmarked) [A-20]			135%	134%	116%	94%							
COc1cc(OC)c2c(c1)OCC(c1ccc(O)cc1OCC=C(C)C)C2 (centres unmarked) [B-5]	100%	115%	165%	245%	205%	31%							
COc1cc2c(c(OC)c1C=CC(C)C)CC(c1ccc(O)cc1O)CO2 (centres unmarked) [B-10]	118%	145%	204%	119%	45%	23%							
COc1cc(OC)c2c(c1)OCC(c1ccc(O[Si](C)(C)C(C)(C)C)cc1O[Si](C)(C)C(C)(C)C)C2 (centres unmarked) [B-6]	100%	103%	120%	144%	173%	156%							
COc1cc2c(c(OC)c1CC=C(C)C)CC(c1ccc(OCc3ccccc3)cc1OCc1ccccc1)CO2 (centres unmarked) [B-13]			121%	145%	152%	162%							
COc1cc2c(c(OC)c1CC=C(C)C)CC(c1ccc(O[Si](C)(C)C(C)(C)C)cc1O[Si](C)(C)C(C)(C)C)CO2 (centres unmarked) [B-12]			122%	122%	129%	136%							
COc1cc(OC)c2c(c1)OCC(c1ccc(OCc3ccccc3)cc1OCc1ccccc1)C2 (centres unmarked) [B-1]	114%	116%	136%	157%	188%	178%							
COc1cc(OC)c2c(c1)OCC(c1ccc(O)cc1O)C2 (centres unmarked) [B-2]	106%	116%	110%	146%	293%	100%							
COc1cc2c(c(OC)c1CC=C(C)C)CC(c1ccc(O)cc1O)CO2 (centres unmarked) [B-9]	110%	133%	150%	165%	110%	25%							
COc1ccc(C2COc3cc(OC)cc(OC)c3C2)c(OC)c1 (centres unmarked) [B-8]	94%	91%	90%	90%	118%	83%							
COc1c2c(cc(OC(C)C)c1CCC(C)C)OCC(c1ccc(O)c(CCC(C)C)c1O)C2 (centres unmarked) [A-19]			120%	128%	126%	53%							
COc1cc2c(c(OC)c1CC=C(C)C)CC(c1ccc(O)c(CC=C(C)C)c1O)CO2 (centres unmarked) [A-2, 4-[3,4-dihydro-5,7-dimethoxy-6-(3-methyl-2-butenyl)-2H-1-benzopyran-3-yl]-2-(3-methyl-2-butenyl)-1,3-benzenediol]							117%	112%	137%	184%	234%	121%	26%
